The values below are quoted from earlier work in patent US20260007782A1, “PREPARATION METHOD FOR LIQUID COMPOSITION COMPRISING COMPOUND I AND USE IN MYOCARDIAL PERFUSION PET IMAGING” (SINOTAU PHARMACEUTICAL GROUP, priority 2022, published 2026).

The conditions of the data set: animals.

Take `CC(C)(C)n1ncc(OCc2cccc(Cn3cc(COCCOCC[18F])nn3)c2)c(Cl)c1=O` [Compound I, 2-tert-butyl-4-chloro-5-((3-((4-((2-(2-fluoro[^18F]ethoxy)ethoxy)methyl)-1H-1,2,3-triazol-1-yl)methyl)benzyl)oxy)pyridazin-3(2H)-one]: under “15 minutes post-injection”, the cardiac uptake result is “high” and the liver uptake result is listed as “low”. For the same compound, where the note is “maintained after 60 minutes”, the heart-to-liver ratio result was “favorable”.
